26 compounds from patent US8101612B2, “Phthalazine compounds and methods of use” (Amgen Inc., priority 2006, dated 2012) can be followed below.

A value given as a limit tells only on which side of the number the result lay.

Assay [1] can be described thus: AA5225_IC50_IP (Table 4, assay code not explained). The conditions noted are these: internal assay code.
A short description of assay [2]: AA2734_IC50_IP (Table 4, assay code not explained). The conditions noted are these: internal assay code.
The subject of assay [3] is production of TNF by monocytes activated with bacterial lipopolysaccharide (LPS). Kind of assay: Lipopolysaccharide-activated monocyte TNF production assay (whole blood monocyte assay, LPS induced TNF release). The format is cell-based. To be noted: Homo sapiens. On the procedure: Lipopolysaccharide-Activated Monocyte TNF Production Assay
Test compounds were evaluated in vitro for the ability to inhibit the production of TNF by monocytes activated with bacterial lipopolysaccharide (LPS). Fresh residual source leukocytes (a byproduct of plateletpheresis) were obtained from a local blood bank, and peripheral blood mononuclear cells (PBMCs) were isolated by density gradient centrifugation on Ficol-Paque Plus (Pharmacia). PBMCs were suspended at 2×10^6/mL in DMEM supplemented to contain 2% FCS, 10 mM, 0.3 mg/mL […], 100 U/mL penicillin G and […] streptomycin sulfate (complete media). Cells were plated into Falcon flat bottom, 96 well culture plates (200 μL/well) and cultured overnight at 37° C. and 6% CO2. Non-adherent cells were removed by washing with 200 μl/well of fresh medium. Wells containing adherent cells (˜70% monocytes) were replenished with 100 μL of fresh medium.
Preparation of Test Compound Stock Solutions
Test compounds were dissolved in […]. Compound stock solutions were prepared to an initial concentration of […]. Stocks were diluted initially to 20-200 μM in complete media. Nine two-fold serial dilutions of each compound were then prepared in complete medium.
Treatment of Cells with Test Compounds and Activation of TNF Production with Lipopolysaccharide
One hundred microliters of each test compound dilution were added to microtiter wells containing adherent monocytes and 100 μL complete medium. Monocytes were cultured with test compounds for 60 min at which time 25 μL of complete medium containing 30 ng/mL lipopolysaccharide from E. coli K532 were added to each well. Cells were cultured an additional 4 hrs. Culture supernatants were then removed and TNF presence in the supernatants was quantified using an ELISA.
Flat bottom, 96 well Corning High Binding ELISA plates were coated overnight (4° C.) with 150 μL/well of 3 μg/mL murine anti-human TNF-α MAb (R&D Systems #MAB210). Wells were then blocked for 1 h at room temperature with 200 μL/well of CaCl2-free ELISA buffer supplemented to contain 20 mg/mL BSA (standard ELISA buffer: […], 150 mM NaCl, 2 mM CaCl2, 0.15 mM thimerosal, pH 7.4). Plates were washed and replenished with 100 μL of test supernatants (diluted 1:3) or standards. Standards consisted of eleven 1.5-fold serial dilutions from a stock of 1 ng/mL recombinant human TNF (R&D Systems). Plates were incubated at room temperature for 1 h on orbital shaker (300 rpm), washed and replenished with 100 μL/well of 0.5 μg/mL goat anti-human TNF-α (R&D systems #AB-210-NA) biotinylated at a 4:1 ratio. Plates were incubated for 40 min, washed and replenished with 100 μL/well of alkaline phosphatase-conjugated streptavidin (Jackson ImmunoResearch #016-050-084) at 0.02 μg/mL. Plates were incubated 30 min, washed and replenished with 200 μL/well of 1 mg/mL of p-nitrophenyl phosphate. After 30 min, plates were read at 405 nm on a Vmax plate reader.

For orientation: IC50 means the point on the concentration scale where inhibition reaches its midpoint. A high value points to weaker potency. `Cc1ccc(C(=O)NC2CC2)cc1-c1ccc2c(C3(C(F)(F)F)CC3)nncc2c1` [Example 225, N-cyclopropyl-4-methyl-3-(1-(1-(trifluoromethyl)cyclopropyl)-6-phthalazinyl)benzamide]: the IC50 in assay [1] is 0.968 nM; in assay [2], 0.148 nM. As to `Cc1ccc(C(N)=O)cc1-c1ccc2c(N3CCC[C@H]3C(C)(C)C)nncc2c1` [Example 35, 3-(1-((2S)-2-(1,1-dimethylethyl)-1-pyrrolidinyl)-6-phthalazinyl)-4-methylbenzamide], the IC50 in assay [3] is no more than 10 nM.

Consider `Cc1c(F)cc(C(=O)NC2CC2)cc1-c1ccc2c(O[C@@H](C)C(F)(F)F)nncc2c1` [Example 255, N-cyclopropyl-3-fluoro-4-methyl-5-(1-(((1S)-2,2,2-trifluoro-1-methylethyl)oxy)-6-phthalazinyl)benzamide], for which the figures for the IC50 in assay [1] and in assay [2] were 0.592 nM and 0.307 nM, respectively. On the same counts, the results for `Cc1ccc(C(=O)Nc2ccnn2C)cc1-c1ccc2c(C3(C(F)(F)F)CC3)nncc2c1` [Example 226, 4-methyl-N-(1-methyl-1H-pyrazol-5-yl)-3-(1-(1-(trifluoromethyl)cyclopropyl)-6-phthalazinyl)benzamide] are 1.12 nM and 0.173 nM. On the same counts, the results for `[2H]c1c([2H])c(C(=O)NC2CC2)c([2H])c(-c2ccc3c(OC(C)C(F)(F)F)nncc3c2)c1C` (stereo not drawn) [Example 259, N-cyclopropyl-4-methyl-3-(1-((2,2,2-trifluoro-1-methylethyl)oxy)-6-phthalazinyl)benzamide-d 3] are 0.991 nM and 1.7 nM. `Cc1ccc(C(=O)Nc2ccnn2C)cc1-c1ccc2c(C(C)(O)C(F)(F)F)nncc2c1` (stereo not drawn) [Example 243, 4-methyl-N-(1-methyl-1H-pyrazol-5-yl)-3-(1-(2,2,2-trifluoro-1-hydroxy-1-methylethyl)-6-phthalazinyl)benzamide]: the IC50 in assay [1] turned out to be 1.33 nM.

Take `Cc1ccc(C(=O)NC2CC2)cc1-c1ccc2c([C@@H](C)C(F)(F)F)nncc2c1` [Example 227a, N-cyclopropyl-4-methyl-3-(1-((1R)-2,2,2-trifluoro-1-methylethyl)-6-phthalazinyl)benzamide]: the IC50 in assay [1] came to 1.08 nM; in assay [2], 0.455 nM. As to `Cc1ccc(C(=O)NC(C)C)cc1-c1ccc2c(O[C@H](C)C(F)(F)F)nncc2c1` [Example 41, 4-methyl-N-(1-methylethyl)-3-(1-(((1R)-2,2,2-trifluoro-1-methylethyl)oxy)-6-phthalazinyl)benzamide], in assay [3], the IC50 was no more than 100 nM. Same read-out and setting: the figure for `Cc1ccc(C(=O)Nc2ccnn2C)cc1-c1ccc2c(N3CCOC[C@@H]3C)nncc2c1` [Example 15, 4-methyl-3-(1-((3S)-3-methyl-4-morpholinyl)-6-phthalazinyl)-N-(1-methyl-1H-pyrazol-5-yl)benzamide] is no more than 10 nM. For `Cc1ccc(C(=O)NC2CC2)cc1-c1ccc2c(C(C)(O)C(F)(F)F)nncc2c1` (stereo not drawn) [Example 244, N-cyclopropyl-4-methyl-3-(1-(2,2,2-trifluoro-1-hydroxy-1-methylethyl)-6-phthalazinyl)benzamide], the IC50 in assay [1] is 0.952 nM; in assay [2], 0.434 nM. On the same counts, the results for `Cc1ccc(C(=O)NC2CC2)cc1-c1ccc2c([C@](C)(O)C(F)(F)F)nncc2c1` [Example 230, N-cyclopropyl-4-methyl-3-(1-((1S)-2,2,2-trifluoro-1-hydroxy-1-methylethyl)-6-phthalazinyl)benzamide] are 0.643 nM and 0.364 nM.

Turning to `Cc1ccc(C(=O)NC2CC2)cc1-c1ccc2c(C(C)(C)F)nncc2c1` [Example 252, N-cyclopropyl-3-(1-(1-fluoro-1-methylethyl)-6-phthalazinyl)-4-methylbenzamide], the IC50 was found to be 0.745 nM in assay [1] and 0.242 nM in assay [2]. With `Cc1ccc(C(=O)O)cc1-c1ccc2c(C(C)(C)O)nncc2c1` [Example 247, 3-(1-(1-hydroxy-1-methylethyl)-6-phthalazinyl)-4-methylbenzoic acid], the IC50 in assay [1] was found to be 1000 nM. This lies in the single-digit micromolar range. For `CNC(=O)c1ccc(C)c(-c2ccc3c(O[C@@H](C)C(F)(F)F)nncc3c2)c1` [Example 258, N,4-dimethyl-3-(1-(((1S)-2,2,2-trifluoro-1-methylethyl)oxy)-6-phthalazinyl)benzamide], half-maximal inhibition in assay [2] (IC50) was put at 1.75 nM. That is a single-digit nanomolar value.

Consider `Cc1ccc(C(=O)Nc2ccnn2C)cc1-c1ccc2c([C@](C)(O)C(F)(F)F)nncc2c1` [Example 250, 4-methyl-N-(1-methyl-1H-pyrazol-5-yl)-3-(1-((1S)-2,2,2-trifluoro-1-hydroxy-1-methylethyl)-6-phthalazinyl)benzamide], for which the figures for the IC50 in assay [1] and in assay [2] were 0.954 nM and 0.296 nM, respectively. For `Cc1c(F)cc(C(=O)NC2CC2)cc1-c1ccc2c(C(C)(C)F)nncc2c1` [Example 253, N-cyclopropyl-3-fluoro-5-(1-(1-fluoro-1-methylethyl)-6-phthalazinyl)-4-methylbenzamide], in that order: 0.696 nM and 0.168 nM. For `Cc1ccc(C(=O)NC2CC2)cc1-c1ccc2c(C(C)(C)O)nncc2c1` [Example 248, N-cyclopropyl-3-(1-(1-hydroxy-1-methylethyl)-6-phthalazinyl)-4-methylbenzamide], in that order: 0.812 nM and 0.826 nM. On to `Cc1ccc(C(=O)NC2CC2)cc1-c1ccc2c([C@H](C)C(F)F)nncc2c1` [Example 256, N-cyclopropyl-3-(1-((1S)-2,2-difluoro-1-methylethyl)-6-phthalazinyl)-4-methylbenzamide], for which the values for the IC50 in assay [1] and in assay [2] were 1.03 nM and 0.18 nM, respectively. On the same counts, the results for `Cc1ccc(C(=O)Nc2ccnn2C)cc1-c1ccc2c([C@@](C)(O)C(F)(F)F)nncc2c1` [Example 251, 4-methyl-N-(1-methyl-1H-pyrazol-5-yl)-3-(1-((1R)-2,2,2-trifluoro-1-hydroxy-1-methylethyl)-6-phthalazinyl)benzamide] are 0.913 nM and 0.2 nM. On the same counts, the results for `Cc1c(F)cc(C(=O)NC2CC2)cc1-c1ccc2c(O[C@H](C)C(F)(F)F)nncc2c1` [Example 254, N-cyclopropyl-3-fluoro-4-methyl-5-(1-(((1R)-2,2,2-trifluoro-1-methylethyl)oxy)-6-phthalazinyl)benzamide] are 0.769 nM and 0.501 nM. On the same counts, the results for `Cc1ccc(C(=O)Nc2ccnn2C)cc1-c1ccc2c(C(C)(C)F)nncc2c1` [Example 249, 3-(1-(1-fluoro-1-methylethyl)-6-phthalazinyl)-4-methyl-N-(1-methyl-1H-pyrazol-5-yl)benzamide] are 1.14 nM and 0.334 nM.

The compound `Cc1ccc(C#N)cc1-c1ccc2c(O)nncc2c1` [Example 232, 3-(1-hydroxy-6-phthalazinyl)-4-methylbenzonitrile] displayed an IC50 in assay [1] of 1.33 nM.

Take `Cc1ccc(C#N)cc1-c1ccc2c(O[C@H](C)C(F)(F)F)nncc2c1` [Example 231, 4-methyl-3-(1-(((1R)-2,2,2-trifluoro-1-methylethyl)oxy)-6-phthalazinyl)benzonitrile]: the IC50 amounted to 80.8 nM in assay [1] and 33.3 nM in assay [2]. On the same counts, the results for `Cc1ccc(C(=O)NC2CC2)cc1-c1ccc2c([C@@](C)(O)C(F)(F)F)nncc2c1` [Example 229, N-cyclopropyl-4-methyl-3-(1-((1R)-2,2,2-trifluoro-1-hydroxy-1-methylethyl)-6-phthalazinyl)benzamide] are 0.599 nM and 0.383 nM.

As to `CCNC(=O)c1ccc(C)c(-c2ccc3c(O[C@@H](C)C(F)(F)F)nncc3c2)c1` [Example 257, N-ethyl-4-methyl-3-(1-(((1S)-2,2,2-trifluoro-1-methylethyl)oxy)-6-phthalazinyl)benzamide], the IC50 in assay [1] was determined as 1.02 nM; in assay [2], 0.813 nM. For `Cc1ccc(C(=O)NC2CC2)cc1-c1ccc2c(-c3ccc(S(=O)(=O)C(F)(F)F)cc3C)nncc2c1` [Example 233, N-cyclopropyl-4-methyl-3-(1-(2-methyl-4-((trifluoromethyl)sulfonyl)phenyl)-6-phthalazinyl)benzamide], in that order: 0.62 nM and 2.89 nM.
